The record followed here is PubChem BioAssay AID504927 (NMMLSC, 2011).

“And” between values parts separate entries of the source, which are not always exact repeats. Equal values may be shown once. The source made the active and inactive calls.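 The calls were made as follows: active = EC50 below 10 microM from an accepted curve fit, fit percent over 10, EC50 error under a fifth; inactive = the rest.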

As usually defined, the EC50 is the concentration that produces a half-maximal response.

Test system in one assay: not listed separately
In words: inhibitors of superoxide in aged yeast, dose response, additional hits, confirmation (AID 504927). The following applies: S. cerevisiae aged culture, superoxide DHE fluorescence, 7 d; at 33.1 µM (top of the series).
In the case of `CC(=O)[C@@]1(O)CCC2C3CC[C@H]4C[C@@H](O)CC[C@]4(C)C3CC[C@@]21C` (stereo partly drawn), the percent response (superoxide), lower = inhibition was 107% (inactive). Same read-out and setting: the figure for `C=CCOn1c(=O)c(-c2cccs2)[n+]([O-])c2ccccc21` is 83.4% (inactive). As for `CC(=O)O[C@H]1CCC2C3CC[C@H]4[C@@H](O)[C@H](O)CC[C@]4(C)C3CC[C@@]21C` (stereo partly drawn), the percent response (superoxide), lower = inhibition was 93.3% (inactive). Regarding `CC(C)(C)Nc1ncnc2c1cnn2-c1ccccc1`, the percent response (superoxide), lower = inhibition was 110% (inactive). Same read-out and setting: the figure for `Cc1ccccc1NC(=O)c1cccc2nc3ccccc3nc12` is 104% (inactive); for `Cc1ccc(-c2nn(C(C)(C)C)c3ncnc(N)c23)cc1` it is 44.3% (inactive). Take `O=C(CN1CCN(c2ccccn2)CC1)Nc1ccccc1F`: the percent response (superoxide), lower = inhibition is 108% (inactive). Still for that read-out and setting: then `C[C@]12CCC3C(CC[C@H]4C[C@@H](O)CC[C@]34C)C1CC[C@@H]2OC(=O)[C@H](N)CCCCN` (stereo partly drawn), with 96.2% (inactive). In the case of `O=C(Nc1ccc2nc3ccccc3nc2c1)c1ccc(Br)cc1`, the percent response (superoxide), lower = inhibition is 104% (inactive). On to `CC(C)OC(=O)CSc1nnc(-c2ccc(Cl)cc2Cl)o1`, for which the percent response (superoxide), lower = inhibition is 128% (inactive). As to `C=C1C(O)[C@@H]2O[C@]3(CC[C@H](/C=C/C(C)[C@@H]4CC(C)=CC5(O[C@H](C[C@@](C)(O)C(=O)O)CCC5O)O4)O3)CC[C@H]2O[C@@H]1C(O)CC(C)[C@H]1OC2(CCCCO2)CCC1C` (stereo partly drawn), the percent response (superoxide), lower = inhibition is 84% (inactive). Take `FC(F)(F)c1nc2cc3nc4ccccc4[nH]c3cc2n1`: the percent response (superoxide), lower = inhibition is 72.2% (inactive).

`c1ccc2nc3ccccc3nc2c1`: the percent response (superoxide), lower = inhibition was 88.6% (inactive).

Regarding `Cc1cc(C)cc(NC(=O)CN2CCN(c3ccccn3)CC2)c1`, the percent response (superoxide), lower = inhibition is 95.7% (inactive). In the case of `COc1ccc2c3c(cccc13)N(C)N=C2C`, the percent response (superoxide), lower = inhibition is 78.1% (inactive). As to `CCN(CC)C(=O)CSc1nnc(-c2cccc(OC)c2)o1`, the percent response (superoxide), lower = inhibition is 108% (inactive). For `C[C@]12CCC3C(CC[C@H]4C[C@@H](O)CC[C@]34C)[C@H]1CC[C@H]2O` (stereo partly drawn), the percent response (superoxide), lower = inhibition was 113% (inactive). In the case of `Cn1c(O)c(C(=Nc2ccc(F)cc2)c2ccccc2Cl)c(=O)n(C)c1=O`, the percent response (superoxide), lower = inhibition was 113% (inactive).

Take `N#CCc1nn(-c2ccccc2)c2ncnc(N)c12`: the percent response (superoxide), lower = inhibition is 95.5% (inactive).

Regarding `COc1ccc2nc3cccc(OC)c3nc2c1`, the percent response (superoxide), lower = inhibition was 79.2% (inactive). `N#CC(c1nc2ccccc2nc1N1CCCC1)S(=O)(=O)c1ccccc1` (stereo not drawn): the percent response (superoxide), lower = inhibition is 128% (inactive).

`O=C(/C=C/c1ccccc1)NC(=S)NNC(=O)Cc1cccs1`: the percent response (superoxide), lower = inhibition was 78.9% (inactive).

`O=C(/C=C/c1cccs1)NC(=S)NNC(=O)Cc1cccs1`: the percent response (superoxide), lower = inhibition was 132% (inactive). For `CCCCCNC(=O)C(=O)C1C(=O)Nc2ccccc21` (stereo not drawn), the percent response (superoxide), lower = inhibition was 86.1% (inactive).

As to `C=CCSc1nnc(-c2ccc([N+](=O)[O-])cc2)o1`, the percent response (superoxide), lower = inhibition was 63.5% (inactive). As to `Cc1cc(C)c2[nH]c3nc(SCC(=O)O)nnc3c2c1`, the percent response (superoxide), lower = inhibition was 111% (inactive). Take `COc1cccc2nc3cc(C)c(C)cc3nc12`: the percent response (superoxide), lower = inhibition was 78.3% (inactive).

Take `CNC(=O)c1cccc2nc3ccccc3nc12`: the percent response (superoxide), lower = inhibition was 52% (inactive). On to `Cc1cc2nc3ccc(N(C)C)cc3nc2cc1N`, for which the percent response (superoxide), lower = inhibition was 82.4% (inactive). For the molecule `CCC(=Nc1ccccc1O)C1=C(O)CC(c2ccccc2)CC1=O` (stereo not drawn), the percent response (superoxide), lower = inhibition was 87.9% (inactive). With `COc1ccc2c(c1)c1nnc(SC)nc1n2C`, the percent response (superoxide), lower = inhibition was 54.2% (inactive).

Turning to `O=c1[nH]c(O)c(C=Nc2ccc(F)c(Cl)c2)c(=O)[nH]1`, the percent response (superoxide), lower = inhibition is 97.1% (inactive). As for `CCn1c2ccccc2c2n[nH]c(=S)nc21`, the percent response (superoxide), lower = inhibition is 94.7% (inactive). In the case of `NC(=O)CSc1nnc(-c2ccc([N+](=O)[O-])cc2)o1`, the percent response (superoxide), lower = inhibition is 99.1% (inactive). On the same count and under the same terms, then `COc1ccc2nc3ccccc3[n+]([O-])c2c1`, with 107% (inactive). Regarding `CCc1nc(NC(C)(C)C)c2cnn(-c3ccccc3)c2n1`, the percent response (superoxide), lower = inhibition is 119% (inactive). In the case of `CC(C)CSc1nnc2c3ccccc3n(C)c2n1`, the percent response (superoxide), lower = inhibition was 105% (inactive). `COc1ccc2cc(C3CC(c4ccco4)=NN3S(=O)(=O)c3ccccc3)c(Cl)nc2c1` (stereo not drawn): the percent response (superoxide), lower = inhibition was 110% (inactive). On to `Oc1cccc2nc3ccccc3nc12`, for which the percent response (superoxide), lower = inhibition was 129% (inactive). Consider `C#C[C@]1(O)[C@H](O)CC2C3CC[C@H]4C[C@@H](O)CC[C@]4(C)C3CC[C@@]21C` (stereo partly drawn), for which the percent response (superoxide), lower = inhibition is 117% (inactive). In the case of `CN(C)CCNc1ncnc2c1cnn2-c1ccc(Cl)cc1`, the percent response (superoxide), lower = inhibition is 97.4% (inactive).

A further assay has as its system S. cerevisiae aged culture, superoxide DHE fluorescence, 7 d. The description is as above.
Conditions: not given
Consider `C/C(=N\Nc1ncnc2sc(C)c(C)c12)c1ccccn1`, for which the EC50 is 10400 nM (inactive).

Turning to `COC(=O)c1cccc2nc3c(C(C)O)cccc3nc12` (stereo not drawn), the EC50 was 910 nM. With `CC(C)(C)n1nc(-c2ccc(Cl)cc2)c2c(N)ncnc21`, the EC50 was 4230 nM. Consider `c1ccc2[nH]c3cc4ncnc4cc3nc2c1`, for which the EC50 was 130 nM.

For the molecule `C[C@]12CCC3C(CC[C@H]4C[C@H](O)CC[C@]34C)C1CCC2=O` (stereo partly drawn), the EC50 is 30 nM.

In the case of `C#CCSc1nnc(-c2ccc([N+](=O)[O-])cc2)o1`, the EC50 was 5160 nM. For `COc1ccc2nc3ccccc3nc2c1NC(=O)c1ccccc1Cl`, the EC50 is 60 nM. Regarding `CC(=O)Nc1ccc2nc3ccccc3nc2c1`, the EC50 is 170 nM.

On to `OCC[n+]1c2ccccc2nc2ccc(N3CCOCC3)cc21`, for which the EC50 is 2610 nM. Take `COc1ccc2nc3ccccc3nc2c1`: the EC50 is 370 nM and 850 nM. For the molecule `CCN(CC)C(=O)c1cccc2nc3ccccc3nc12`, the EC50 was 1520 nM.

With `CSc1nnc2c3cc(F)ccc3n(C)c2n1`, the EC50 is 5860 nM.

As to `O=C(Nc1ccc2nc3ccccc3nc2c1)c1ccccc1`, the EC50 was 80 nM. Consider `O=C(OCc1c(F)cccc1Cl)c1cnc2ccccc2n1`, for which the EC50 is 5980 nM. As to `Cn1c(=O)[nH]c2nncnc2c1=O`, the EC50 was 3400 nM. As for `O=C(O)c1cnc2ccccc2n1`, the EC50 was 13400 nM (inactive).

`O=C(Nc1cccc(Cl)c1)Nc1ccc2nccnc2c1`: the EC50 is 510 nM.

Regarding `O=C(c1cccc2nc3ccccc3nc12)N1CCOCC1`, the EC50 is 1750 nM. Regarding `C[C@@]12C(=O)OC(=O)[C@]1(C)C1CCC2O1`, the EC50 is 180 nM. On the same count and under the same terms, then `CCN(CC)C(=O)c1ccc2nc3ccccc3nc2c1`, with 790 nM; and `CC(C)OC(=O)c1ccc2nc3ccccc3nc2c1`, with 12600 nM (inactive).

With `CNc1ccc2nc3ccccc3[n+](C)c2c1`, the 50% effective concentration (EC50) was 2110 nM. Regarding `O=C1c2c(O)ccc(O)c2C(=O)c2c(NCCNCCO)ccc(NCCNCCO)c21`, the EC50 was 6580 nM. `Cc1cccc2nc3ccccc3nc12`: the EC50 was 2720 nM. As to `C[C@]12CCC3C(CC[C@H]4C[C@H](O)CC[C@]34C)C1C[C@@H](CCCCl)[C@@H]2O` (stereo partly drawn), the EC50 is 530 nM. Take `C[n+]1c2ccccc2nc2ccc(NCCO)cc21`: the EC50 is 4520 nM. As to `COc1ccc2nc3ccccc3nc2c1N`, the EC50 was 1130 nM. Same read-out and setting: the figure for `CCN(CC)c1ccc2nc3ccc(N)cc3[n+](-c3ccccc3)c2c1` is 2310 nM. Take `[O-][n+]1c2ccccc2[n+]([O-])c2cc(O)ccc21`: the EC50 was 1110 nM.

With `CC(C)(C)n1nc(-c2ccc(F)cc2)c2c(N)ncnc21`, the EC50 was 2440 nM. On to `Nc1cc2nc3ccccc3nc2cc1N`, for which the EC50 was 3500 nM. Take `CSc1nnc(-c2ccc([N+](=O)[O-])cc2)o1`: the EC50 was 13100 nM (inactive).
